# Measured values reported in ChEMBL document CHEMBL3044789, “Comparing weed and crop seedling response to pre-emergence pendimethalin application in Corchorus olitorius and Abelmoschus esculentus” (Crop Prot, 2006).
# Legend:
# Synedrella nodiflora [1] = assay: Herbicidal activity against Synedrella nodiflora in Abelmoschus esculentus plots assessed as weed cover at 1.32 kg a.i/ha after 4 weeks (reference value: 22.6 +/- 0.49 %); assay type: functional
# Calopogonium mucunoides [2] = assay: Herbicidal activity against Calopogonium mucunoides in Abelmoschus esculentus plots assessed as weed cover at 1.32 kg a.i/ha after 4 weeks (reference value: 22.6 +/- 0.49 %); assay type: functional
# Calopogonium mucunoides [3] = assay: Herbicidal activity against Calopogonium mucunoides in Abelmoschus esculentus plots assessed as major weed growth at 1.32 kg a.i/ha after 2 weeks; assay type: functional
# Commelina diffusa = assay: Herbicidal activity against Commelina diffusa in Corchorus olitorius plots assessed as weed cover at 0.66 kg a.i/ha after 7 weeks (reference value: 1.7 +/- 0.56 %); assay type: functional
# Calopogonium mucunoides [4] = assay: Herbicidal activity against Calopogonium mucunoides in Abelmoschus esculentus plots assessed as major weed growth at 0.33 kg a.i/ha after 2 weeks; assay type: functional
# Mimosa pudica [5] = assay: Herbicidal activity against Mimosa pudica in Abelmoschus esculentus plots assessed as weed cover at 0.33 kg a.i/ha after 4 weeks (reference value: 22.6 +/- 0.49 %); assay type: functional
# Abelmoschus esculentus [6] = assay: Phytotoxicity in Abelmoschus esculentus assessed as crop seedling injury at 1.32 kg a.i/ha after 2 weeks relative to untreated control; assay type: organism-based; details: in vivo, 336 h
# Talinum fruticosum = assay: Herbicidal activity against Talinum fruticosum in Corchorus olitorius plots assessed as weed cover at 0.99 kg a.i/ha after 4 weeks (reference value: 20.1+/- 0.57 %); assay type: functional
# [7] = test system: Rottboellia cochinchinensis; assay: Herbicidal activity against Rottboellia cochinchinensis in Abelmoschus esculentus plots assessed as weed cover at 0.33 kg a.i/ha after 2 weeks (reference value: 63.5 +/- 0.29 %); assay type: functional
# Corchorus olitorius [8] = assay: Phytotoxicity in Corchorus olitorius assessed as root length at 0.33 kg a.i/ha applied as solution after 7 weeks (reference value: 14.3 +/- 1.06 mm); assay type: organism-based; details: in vivo, other, 1176 h
# Corchorus olitorius [9] = assay: Phytotoxicity in Corchorus olitorius assessed as seedling injury at 0.99 kg a.i/ha applied as solution after 7 weeks relative to control; assay type: organism-based; details: in vivo, other, 1176 h
# Euphorbia heterophylla [10] = assay: Herbicidal activity against Euphorbia heterophylla in Corchorus olitorius plots assessed as weed cover at 0.99 kg a.i/ha after 2 weeks (reference value: 81.7 +/- 0.43 %); assay type: functional
# Synedrella nodiflora [11] = assay: Herbicidal activity against Synedrella nodiflora in Corchorus olitorius plots assessed as weed cover at 0.66 kg a.i/ha after 4 weeks (reference value: 20.1+/- 0.57 %); assay type: functional
# Abelmoschus esculentus [12] = assay: Phytotoxicity in Abelmoschus esculentus assessed as seedling emergence at 1.32 kg a.i/ha treated to soil after 7 weeks (reference value: 95 +/- 0.05 %); assay type: organism-based; details: in vivo, other, 1176 h
# Corchorus olitorius [13] = assay: Phytotoxicity in Corchorus olitorius assessed as seed germination at 0.33 kg a.i/ha applied as solution after 7 weeks relative to untreated control; assay type: organism-based; details: in vivo, other, 1176 h
# Euphorbia heterophylla [14] = assay: Herbicidal activity against Euphorbia heterophylla in Abelmoschus esculentus plots assessed as weed cover at 0.33 kg a.i/ha after 2 weeks (reference value: 63.5 +/- 0.29 %); assay type: functional
# Chromolaena odorata = assay: Herbicidal activity against Chromolaena odorata in Corchorus olitorius plots assessed as weed cover at 1.32 kg a.i/ha after 7 weeks (reference value: 1.7 +/- 0.56 %); assay type: functional
# Ageratum conyzoides = assay: Herbicidal activity against Ageratum conyzoides in Abelmoschus esculentus plots assessed as weed cover at 0.33 kg a.i/ha after 4 weeks (reference value: 22.6 +/- 0.49 %); assay type: functional
# Euphorbia heterophylla [15] = assay: Herbicidal activity against Euphorbia heterophylla in Abelmoschus esculentus plots assessed as weed cover at 0.66 kg a.i/ha after 4 weeks (reference value: 22.6 +/- 0.49 %); assay type: functional
# Mimosa pudica [16] = assay: Herbicidal activity against Mimosa pudica in Abelmoschus esculentus plots assessed as weed recovery at 0.33 kg a.i/ha after 2 weeks (reference value: 60.1 +/- 0.46 %); assay type: functional
# Abelmoschus esculentus [17] = assay: Phytotoxicity in Abelmoschus esculentus assessed as root length at 1.32 kg a.i/ha treated to soil after 7 weeks (reference value: 2.9 +/- 0.45 mm); assay type: organism-based; details: in vivo, other, 1176 h
# [18] = test system: Rottboellia cochinchinensis; assay: Herbicidal activity against Rottboellia cochinchinensis in Corchorus olitorius plots assessed as weed cover at 0.33 kg a.i/ha after 2 weeks (reference value: 81.7 +/- 0.43 %); assay type: functional
# Calopogonium mucunoides [19] = assay: Herbicidal activity against Calopogonium mucunoides in Abelmoschus esculentus plots assessed as weed cover at 0.33 kg a.i/ha after 2 weeks (reference value: 63.5 +/- 0.29 %); assay type: functional
# Corchorus olitorius [20] = assay: Phytotoxicity in Corchorus olitorius assessed as root length at 0.33 kg a.i/ha treated to soil after 7 weeks (reference value: 16.9 +/- 0.09 mm); assay type: organism-based; details: in vivo, other, 1176 h
# Euphorbia heterophylla [21] = assay: Herbicidal activity against Euphorbia heterophylla in Abelmoschus esculentus plots assessed as major weed growth at 1.32 kg a.i/ha after 2 weeks; assay type: functional
# Synedrella nodiflora [22] = assay: Herbicidal activity against Synedrella nodiflora in Abelmoschus esculentus plots assessed as weed cover at 0.66 kg a.i/ha after 2 weeks (reference value: 63.5 +/- 0.29 %); assay type: functional
# Abelmoschus esculentus [23] = assay: Phytotoxicity in Abelmoschus esculentus assessed as seedling injury at 1.32 kg a.i/ha applied as solution after 7 weeks relative to control; assay type: organism-based; details: in vivo, other, 1176 h
# Euphorbia heterophylla [24] = assay: Herbicidal activity against Euphorbia heterophylla in Corchorus olitorius plots assessed as weed cover at 0.33 kg a.i/ha after 4 weeks (reference value: 20.1+/- 0.57 %); assay type: functional
# Euphorbia heterophylla [25] = assay: Herbicidal activity against Euphorbia heterophylla in Corchorus olitorius plots assessed as weed cover at 0.33 kg a.i/ha after 2 weeks (reference value: 81.7 +/- 0.43 %); assay type: functional
# Corchorus olitorius [26] = assay: Phytotoxicity in Corchorus olitorius assessed as seedling emergence at 1.32 kg a.i/ha treated to soil after 7 weeks (reference value: 95 +/- 0.05 %); assay type: organism-based; details: in vivo, other, 1176 h
# Synedrella nodiflora [27] = assay: Herbicidal activity against Synedrella nodiflora in Corchorus olitorius plots assessed as weed cover at 0.99 kg a.i/ha after 2 weeks (reference value: 81.7 +/- 0.43 %); assay type: functional
# Cyperus rotundus = assay: Herbicidal activity against Cyperus rotundus in Corchorus olitorius plots assessed as weed cover at 0.66 kg a.i/ha after 2 weeks (reference value: 81.7 +/- 0.43 %); assay type: functional
# Euphorbia heterophylla [28] = assay: Herbicidal activity against Euphorbia heterophylla in Corchorus olitorius plots assessed as weed cover at 0.99 kg a.i/ha after 4 weeks (reference value: 20.1+/- 0.57 %); assay type: functional
# Calopogonium mucunoides [29] = assay: Herbicidal activity against Calopogonium mucunoides in Corchorus olitorius plots assessed as weed cover at 0.66 kg a.i/ha after 4 weeks (reference value: 20.1+/- 0.57 %); assay type: functional
# Euphorbia heterophylla [30] = assay: Herbicidal activity against Euphorbia heterophylla in Corchorus olitorius plots assessed as weed recovery at 0.33 kg a.i/ha after 2 weeks (reference value: 78.3 +/- 0.74 %); assay type: functional
# Synedrella nodiflora [31] = assay: Herbicidal activity against Synedrella nodiflora in Abelmoschus esculentus plots assessed as weed recovery at 0.33 kg a.i/ha after 2 weeks (reference value: 60.1 +/- 0.46 %); assay type: functional
structure (smiles),measurement,setting,value
CCC(CC)Nc1c([N+](=O)[O-])cc(C)c(C)c1[N+](=O)[O-] [PENDIMETHALIN],Activity,Synedrella nodiflora [1],36.2%
same,Activity,Calopogonium mucunoides [2],36.2%
same,Activity,Calopogonium mucunoides [3],31 /m2
same,Activity,Commelina diffusa,100%
same,Activity,Calopogonium mucunoides [4],31 /m2
same,Activity,Mimosa pudica [5],53.8%
same,Activity,Abelmoschus esculentus [6],53.8%
same,Activity,Talinum fruticosum,48.3%
same,Activity,[7],56.8%
same,Activity,Corchorus olitorius [8],3.1 mm
same,Activity,Corchorus olitorius [9],46.7%
same,Activity,Euphorbia heterophylla [10],51.7%
same,Activity,Synedrella nodiflora [11],63.3%
same,Activity,Abelmoschus esculentus [12],85%
same,Activity,Corchorus olitorius [13],88.7%
same,Activity,Euphorbia heterophylla [14],56.8%
same,Activity,Chromolaena odorata,95%
same,Activity,Ageratum conyzoides,53.8%
same,Activity,Euphorbia heterophylla [15],47.9%
same,Activity,Mimosa pudica [16],39.2%
same,Activity,Abelmoschus esculentus [17],1.5 mm
same,Activity,[18],63.3%
same,Activity,Calopogonium mucunoides [19],56.8%
same,Activity,Corchorus olitorius [20],14.2 mm
same,Activity,Euphorbia heterophylla [21],31 /m2
same,Activity,Synedrella nodiflora [22],50.8%
same,Activity,Abelmoschus esculentus [23],56.8%
same,Activity,Euphorbia heterophylla [24],73.3%
same,Activity,Euphorbia heterophylla [25],63.3%
same,Activity,Corchorus olitorius [26],83.3%
same,Activity,Synedrella nodiflora [27],51.7%
same,Activity,Cyperus rotundus,51.7%
same,Activity,Euphorbia heterophylla [28],48.3%
same,Activity,Calopogonium mucunoides [29],63.3%
same,Activity,Euphorbia heterophylla [30],31.7%
same,Activity,Synedrella nodiflora [31],39.2%
